Test results published in patent US20090074850A1, “USE OF A TOPICAL COMPOSITION CONTAINING EPIDERMAL GROWTH FACTOR (EGF) FOR DIABETIC FOOT AMPUTATION PREVENTION” (priority 2005, published 2009).
Marks after values point to notes of the source that are not given here.

How the values were obtained:
[1] = tested on: controlled acute ulcers in male Wistar rats; experiment: Experimental model of controlled acute lesions; assay type: in vivo
Procedure: The following experiment was performed with the aim of evaluating the cicatrisation effect of the new pharmaceutical formulation for topical use, which is based on EGF-loaded (deformable or traditional) liposomes, in acute lesions of satisfactory prognosis.
(§1) Experimental Biomodel Male Wistar rats with a body weight of 225-250 grams. Animal were maintained in controlled areas of the animal facility at CIGB under a constant illumination schedule of 12×12 hours, air change cycles, and free access to the diet. The rats were individually housed into T3 boxes with replacement of the bedding every 48 hours after its sterilization. Induction of ulcers: Animals were anesthetized by intraperitoneal injection of ketamine/xylazine. The back of rats comprising the area from the retroscapular space up to the sacrum was mechanically and chemically depilated. This region was aseptisized with a solution of povidone-iodine and isopropyl alcohol. The area over the skin selected for the induction of ulcers was marked with Chinese ink in order to induce circular, total width lesions with the aid of 9 mm-diameter biotomes (AcuDrem, Fl, USA). […] Lesions were washed with a sterile saline solution and their inner border was delineated with permanent ink for later calculation of wound area at time zero. The lesions of all animals were hygienized daily with 70% ethanol and sterile saline before the application of any treatment.
(§2) The ulcers created in the animals were randomly assigned to the following experimental treatment groups by using an input order/group crossmatching table:
(§3) Group I—no treatment. Group II—placebo (formulation of empty deformable liposomes—without EGF) applied topically.
(§4) Group III—infiltration of an EGF solution containing 75 micrograms per milliliter by using hypodermic needles. Infiltrations were performed on the border and the bottom of wounds
Group IV—treatment with the formulation of traditional liposomes containing 25 micrograms of EGF per gram of substance applied topically Group V—treatment with the formulation of traditional liposomes containing 75 micrograms of EGF per gram of substance applied topically Group V—treatment with the formulation of deformable liposomes containing 25 micrograms of EGF per gram of substance applied topically Group VII—treatment with the formulation of deformable liposomes containing 75 micrograms of EGF per gram of substance applied topically
(§5) Each group consisted of 10 rats; therefore 60 wounds per group were studied. Treatments were performed daily, after sedation of animals with diazepam administrated by the intra-peritoneal route.
(§6) The lesions were traced on transparent acetate sheets for calculating the kinetics of the wounds contraction over the following times: Time 0—represents 100% of opened lesion area and 0% wound contraction, Time 1—72 hours after the induction of lesions, Time 2—five days after the induction of lesions, Time 3—seven days after the induction of lesions, Time 4—nine days after the induction of lesions. The ninth day was set as the end of this study, on which the animals were sacrificed, according to previous experiences on the kinetics of the spontaneous cicatrisation of these lesions. The images with traced lesions borders were digitized. The area of lesions and the percent of contraction were calculated by using the image analysis software DIGIPAT. Statistical analyses of each parameter were performed with the SPSS package by using the non-parametric Mann Whitney U test, a signification level of p<0.05 was assumed.
Animals were sacrificed by intra-peritoneal injection with an overdose of sodium pentobarbital (250 mg/kg). Lesion were dried up from the panniculus carnosus and fixed in 10% neutral formalin for later inclusion in paraffin. The hematoxylin/eosin, van Giesson's and Masson's trichromic stains were used. For each group, the number of animals with 100% epithelization of the lesion, and with a stratified and differentiated epidermis was determined. […]

[2] = tested on: chronic ulcers in male Wistar rats treated with methylglyoxal; experiment: Experimental model of chronic cutaneous ulcers (methylglyoxal-treated rats); assay type: in vivo
Procedure: The following experiment was aimed at evaluating the cicatrisation effect of the new pharmaceutical formulation of topical use that is based on traditional or deformable liposomes containing EGF in chronic lesions of poor prognosis, which simulate lesions in diabetic patients.
Experimental Biomodel Male Wistar rats with a body weight of 225-250 grams. Animal were maintained in controlled areas of the animal facility at CIGB under a constant illumination schedule of 12×12 hours, air change cycles, and free access to the diet. The rats were individually housed into T3 boxes with replacement of the bedding every 48 hours after its sterilization. The animals had previously been treated for two months with a 0.01% methylglyoxal solution to create a glycosylation environment similar to that occurring in a diabetic patient of long term evolution. Among other organic damages, this leads to a slow down of the granulation and remodelation of wounds (Berlanga J., Cibrian D., et al. (2005) Methylglyoxal administration induces diabetes-like microvascular changes and perturbs the healing process of cutaneous wounds. Clin Sci (Lond). 109(1):83-95).
as §1, with “Induction” for “Experimental Biomodel Male Wistar rats with a body weight of 225-250 grams. Animal were maintained in controlled areas of the animal facility at CIGB under a constant illumination schedule of 12×12 hours, air change cycles, and free access to the diet. The rats were individually housed into T3 boxes with replacement of the bedding every 48 hours after its sterilization. Induction”
as §2, §3, §4
Group IV—treatment with the formulation of traditional liposomes containing 25 micrograms of EGF per gram of substance applied topically Group V—treatment with the formulation of traditional liposomes containing 75 micrograms of EGF per gram of substance applied topically Group VI—treatment with the formulation of deformable liposomes containing 25 micrograms of EGF per gram of substance applied topically Group VII—treatment with the formulation of deformable liposomes containing 75 micrograms of EGF per gram of substance applied topically
as §5
as §6, with “[…],” for “Time 4—nine days after the induction of lesions. The ninth day was set as the end of this study,”, “assumed. […]” for “assumed.”

[3] = Concentration of EGF in the viable tissue deep below the cutaneous lesions (ELISA); assay type: in vivo, Wistar rats; details: tissue 1 cm below lesion
Procedure: To determine the concentration of EGF, histological cuts of the tissue deep below (1 cm) the cutaneous lesions were performed 20 min, 1 h, 4 h, 8 h, 16 h and 24 h after the induction of lesions. The tissue was homogenized into a phosphate-buffered saline solution. The concentration of EGF was determined by an Enzyme Linked Immunosorbent Assay (ELISA).

[4] = tested on: diabetic foot ulcers, grade IV and V lesions with a severe ischemic component; details: EGF infiltrated in and around lesions with hypodermic needles; cited from earlier work

Group III: infiltration of an EGF solution containing 75 micrograms per milliliter by using hypodermic needles
No. wounds with 100% epithelization ([1]; 60 wounds per group): 37 | No. wounds with a mature epithelium ([1]; 60 wounds per group): 25 | Contraction (%) ([1]; Time 1 (72 hours after induction of lesions)): 12.3 ± 2.1*^a % | Contraction (%) ([1]; Time 2 (five days)): 23 ± 2.7*^a % | Contraction (%) ([1]; Time 3 (seven days)): 67.5 ± 3.1*^a % | Contraction (%) ([1]; Time 4 (nine days)): 76.5 ± 2.2*^a % | % area covered by mature granulation tissue ([1]; Time 4, 60 wounds per group): 66.7 ± 3.22% | No. wounds with 100% epithelization ([2]; 60 wounds per group): 16 | No. wounds with a mature epithelium ([2]; 60 wounds per group): 11 | Contraction (%) ([2]; Time 1): 6.55 ± 1.14% | Contraction (%) ([2]; Time 2): 10.25 ± 3.1 % | Contraction (%) ([2]; Time 3): 25 ± 2.7 % | Contraction (%) ([2]; Time 4): 53.5 ± 3.5 % | % area covered by mature granulation tissue ([2]; Time 4, 60 wounds per group): 41.7 ± 2.25% | Contraction (%) ([2]; Time 6): 61.7 ± 2.14 % | EGF concentration ([3]; 20 min): 27.55 ± 0.14 µg/mL | EGF concentration ([3]; 1 h): 5.47 ± 0.1 µg/mL | EGF concentration ([3]; 4 h): 1.55 ± 0.1 µg/mL | EGF concentration ([3]; 8 h): 0.26 ± 0.04 µg/mL | EGF concentration ([3]; 16 h): 0.07 ± 0.01 µg/mL | EGF concentration ([3]; 24 h): 0.02 ± 0.005 µg/mL

epidermal growth factor (EGF) [Free EGF, non-encapsulated epidermal growth factor]
efficacy [4]: greater than 50%
